{"source": "paper PMC7480398", "about": "(Phytomedicine, 2020)", "format_in_all_cases": "biochemical", "key": {"PTGS1": {"molecular_target": "T1, PTGS1 (Ovis aries, UniProt P05979)", "T1 sequence (P05979 25-600)": "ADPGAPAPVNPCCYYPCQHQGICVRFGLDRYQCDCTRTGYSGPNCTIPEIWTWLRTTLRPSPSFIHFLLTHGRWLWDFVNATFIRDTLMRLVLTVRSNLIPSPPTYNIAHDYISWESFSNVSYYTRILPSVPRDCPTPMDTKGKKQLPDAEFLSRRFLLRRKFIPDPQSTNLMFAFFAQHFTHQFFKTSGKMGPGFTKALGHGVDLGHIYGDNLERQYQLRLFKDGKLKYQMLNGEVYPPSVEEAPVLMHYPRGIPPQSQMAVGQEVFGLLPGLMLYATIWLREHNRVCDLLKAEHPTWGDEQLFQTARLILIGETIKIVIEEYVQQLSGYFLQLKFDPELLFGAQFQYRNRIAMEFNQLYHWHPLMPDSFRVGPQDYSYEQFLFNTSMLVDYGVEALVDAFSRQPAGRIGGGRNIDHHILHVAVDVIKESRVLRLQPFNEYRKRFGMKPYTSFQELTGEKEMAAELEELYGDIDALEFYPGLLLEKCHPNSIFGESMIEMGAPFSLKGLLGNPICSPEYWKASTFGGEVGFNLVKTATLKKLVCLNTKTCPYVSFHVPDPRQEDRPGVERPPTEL", "test": "colorimetric enzyme activity assay"}, "CYP3A4": {"molecular_target": "CYP3A4 (Homo sapiens, UniProt P08684)", "sequence (P08684 2-503)": "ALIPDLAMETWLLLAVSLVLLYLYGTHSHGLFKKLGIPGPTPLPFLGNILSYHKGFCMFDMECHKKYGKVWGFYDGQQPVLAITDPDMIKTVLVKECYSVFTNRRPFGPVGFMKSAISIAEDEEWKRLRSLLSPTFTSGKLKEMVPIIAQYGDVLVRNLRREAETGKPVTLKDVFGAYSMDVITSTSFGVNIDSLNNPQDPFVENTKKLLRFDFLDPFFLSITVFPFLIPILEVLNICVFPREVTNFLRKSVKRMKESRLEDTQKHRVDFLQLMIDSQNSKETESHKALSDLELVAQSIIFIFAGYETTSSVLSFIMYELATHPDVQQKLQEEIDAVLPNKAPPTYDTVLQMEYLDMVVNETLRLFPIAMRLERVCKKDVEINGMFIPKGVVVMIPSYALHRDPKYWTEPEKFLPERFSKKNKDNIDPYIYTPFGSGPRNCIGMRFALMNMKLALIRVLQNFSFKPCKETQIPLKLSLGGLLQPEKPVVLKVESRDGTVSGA", "test": "fluorescent probe substrate", "conditions": "liver microsomes"}, "CYP1A1": {"molecular_target": "T2, CYP1A1 (Homo sapiens, UniProt P04798)", "T2 sequence (P04798 1-512)": "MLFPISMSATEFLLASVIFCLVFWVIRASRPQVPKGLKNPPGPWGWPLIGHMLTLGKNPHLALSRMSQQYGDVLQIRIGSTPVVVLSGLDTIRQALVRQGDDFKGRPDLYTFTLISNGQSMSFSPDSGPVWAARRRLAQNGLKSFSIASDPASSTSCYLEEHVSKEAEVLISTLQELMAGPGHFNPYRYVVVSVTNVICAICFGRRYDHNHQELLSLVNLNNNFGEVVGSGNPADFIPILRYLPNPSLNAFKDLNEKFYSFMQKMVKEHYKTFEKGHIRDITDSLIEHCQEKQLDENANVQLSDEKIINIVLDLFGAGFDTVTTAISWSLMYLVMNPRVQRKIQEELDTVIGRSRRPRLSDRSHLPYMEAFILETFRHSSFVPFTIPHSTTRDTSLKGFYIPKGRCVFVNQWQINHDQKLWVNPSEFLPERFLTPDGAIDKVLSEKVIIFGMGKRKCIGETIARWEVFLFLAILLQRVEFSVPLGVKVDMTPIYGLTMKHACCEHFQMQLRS"}}}
{"smiles": "O=C(O)[C@H]1O[C@@H](Oc2cc3oc(-c4ccccc4)cc(=O)c3c(O)c2O)[C@H](O)[C@@H](O)[C@@H]1O", "note": "[baicalin]", "values": [{"measurement": "colorimetric enzyme activity assay (590 nm)", "setting": "PTGS1", "value": "Baicalin inhibited pure PTGS1 and AA induced platelet aggregation at the concentration as shown"}]}
{"smiles": "CC(=O)O[C@@H](C[C@@H](C)C1=C2C[C@H](O)[C@H]3[C@@]4(C)CCC(=O)C(C)(C)[C@@H]4CC[C@]3(C)[C@@]2(C)CC1)[C@H]1OC1(C)C", "note": "[alisol B 23-acetate]", "values": [{"measurement": "IC50", "setting": "CYP3A4", "value": "0.45 ± 0.03", "unit": "µM"}]}
{"smiles": "O=c1c(O[C@@H]2O[C@H](CO)[C@H](O)[C@H](O)[C@H]2O)c(-c2ccc(O)c(O)c2)oc2cc(O)cc(O)c12", "note": "[hyperoside]", "values": [{"measurement": "IC50", "setting": "CYP1A1", "value": "105 ± 18.9", "unit": "µM"}]}
